In patent US9976183B2, “Biomarkers for cancers responsive to modulators of HEC1 activity” (TAIVEX THERAPEUTICS CORPORATION, priority 2011, dated 2018):

What was measured:
Type in all cases: cell-based
[1] = system: Nek2 in resistant cell line (A549); test: Nek2 expression by immunoblotting; settings: A549, 48 hours, immunoblot (FIG. 6B)
Description: (§1) Immunoblots: Cell lysates were by incubation of cells in radioimmunoprecipitation assay (RIPA) buffer (50 mM Tris-HCl, pH7.4, 150 mM NaCl, 1% NP40, 0.25% DOC, 0.1% SDS, 1 mM NaVO4, 1 mM EDTA, 1 ug/ml leupeptin, 1 μg/ml pepstatin) or 2.5× sample buffer (50 mM Tris-HCl, pH6.8, 1% SDS, 2.5% BME, 7.5% Glycerol, Bromophenol blue). Tissue samples were immersed in RIPA buffer, disrupted with a homogenizer, and centrifuged to clarify. Samples were then subjected to SDS-PAGE, blotted onto immunoblotting membranes, and incubated with primary antibodies in 3% BSA-TBST. Horseradish peroxidase—conjugated secondary antibodies were used for protein detection by enhanced chemiluminescence (Millipore, Billerica, Mass. 01821 USA). The following antibodies were used for Western blotting: anti-Rb monoclonal antibody 1F8 (Abcam, Cambridge, Mass. 02139-1517 USA); anti-p53 monoclonal antibody (Santa Cruz Biotechnology, Santa Cruz, Calif. 95060 USA); anti-β-actin monoclonal antibody AC-15 (Sigma Aldrich, St. Louis, Mo., USA).
(§2) To investigate this possibility, drug-responsive (HeLa, MDA-MB-468, HCT116) and resistant cells (A549) were synchronized by starvation and expression of Hec1 and Nek2 characterized at 1(G1), 27(G27), 32(G32), and 48(G48) hours. Differential expression patterns between Hec1 and Nek2 are apparent, indicating differences in regulation of Hec1/Nek2 pathways (FIG. 6A). […]

[2] = system: Nek2 in sensitive cell lines (HeLa, HCT116); test: Nek2 expression by immunoblotting; settings: 48 hours, immunoblot (FIG. 6B)
Description: as §1, §2

K562R = test: Synergy of Hec1 inhibitor with cytotoxic drug (combination index, MTS); settings: in combination with paclitaxel
Description: (§3) Synergy: GI50s for selected drugs were determined and used to calculate a concentration ratio for use synergy assays with Hec1 inhibitors. Cells were treated with drugs 24 hours after being seeded in appropriate seeding numbers into 96 well plates containing low glucose DME with 10% FBS. […] Cell viability was determined by MTS assay using a CellTiter 96® Aqueous non-radioactive cell proliferation assay system (Promega, Madison, Wis. 53711 USA) according to the manufacturer's instructions. Optical density was determined using a Bio-Tek 340 spectrophotometer (Bio-Tek, Winooski, Vt. 05404) and were then processed using Excel (Microsoft, Redmond, Wash. 98052-7329) and GraphPad Prism 5 linear regression software (GraphPad Software, La Jolla, Calif. 92037 USA) to determine concentration-response curves for calculating relative GI50s. Synergy was determined by calculating a combination index value using the formula CI (combination index)=(CA,X/ICx,A)+(CB,X/ICx,B), where CA,X and CB,X are the concentrations of drug A and drug B used in combination to achieve x % drug effect. ICx,A and ICx,B are the concentrations for single agents to achieve the same effect.
(§4) Drugs that can target pathways unreached by other current anti-cancer drugs have even better clinical potential to be incorporated into current therapeutic regimens. […] Hec1 inhibitor-responsive cancer cells used for screening were treated with a mixture of Hec1 inhibitor and select anti-cancer drug at appropriate concentration ratios and evaluated for cell viability. […] Table 9 summarizes the results of synergism studies on a number of cancer derived cell lines treated with Hec1 inhibitor 110001 in combination cytotoxic drugs.

NCI/ADR-RES = test: as above; settings: in combination with paclitaxel
Description: as §3, §4

MEX-SA/Dx5 [3] = test: as above; settings: in combination with paclitaxel
Description: as §3, §4

HeLa = test: as above
Description: as §3
Hec1 inhibitor-responsive cancer cells used for screening were treated with a mixture of Hec1 inhibitor and select anti-cancer drug at appropriate concentration ratios and evaluated for cell viability.

MEX-SA/Dx5 [4] = test: Drug sensitivity, MTS assay, drug resistant cell line; settings: MEX-SA/Dx5, multi-drug resistant uterine sarcoma
Description: Drug sensitivity: Cell lines were screened for drug sensitivity by treatment with specified drugs 24 hours after seeding in appropriate seeding numbers into 96 well plates containing low glucose DME with 10% FBS. The drug was added to the plate in triplicate wells, and the cells are incubated in drug treated medium for 96 hours before cell viability was determined by MTS assay using CellTiter 96® Aqueous non-radioactive cell proliferation assay system (Promega, Madison, Wis. 53711 USA). The MTS assay was performed according to the manufacturer's instructions. Optical density was measured using a Bio-Tek 340 spectrophotometer (Bio-Tek, Winooski, Vt. 05404) and optical readings were then processed in Excel (Microsoft, Redmond, Wash. 98052-7329) and GraphPad Prism 5 linear regression software (GraphPad Software, La Jolla, Calif. 92037 USA) to determine concentration-response curves for calculating relative GI50s. […] The % growth inhibition of the test drug on cells were calculated as: [1−(Test Value)/(Control Value)]×100; these values were used to plot concentration-response curves, and then analyzed with linear regression software.

[5] = system: apoptotic caspases in resistant cell line (A549); test: Immunoblot of apoptotic and anti-apoptotic markers; settings: A549, immunoblot (FIG. 5C, FIG. 5D)
Description: as §1

[6] = system: apoptotic caspases in drug-responsive cells (HeLa); test: Immunoblot of apoptotic and anti-apoptotic markers; settings: immunoblot (FIG. 5B, FIG. 5D)
Description: as §1

SMILES | Nek2 expression [1] | Nek2 expression [2] | Combination Index (K562R) | Synergy (K562R) | Combination Index (NCI/ADR-RES) | Synergy (NCI/ADR-RES) | Combination Index (MEX-SA/Dx5 [3]) | Synergy (MEX-SA/Dx5 [3]) | Combination Index (HeLa; in combination with Taxol) | Combination Index (HeLa; in combination with doxorubicin) | Combination Index (HeLa; in combination with topotecan) | GI50 (MEX-SA/Dx5 [4]) | activation of apoptotic caspases [5] | activation of apoptotic caspases [6]
COCCOc1cnc(Sc2cc(C)c(-c3csc(NC(=O)c4ccncc4)n3)c(C)c2)cn1 [compound 110095, N-(4-(4-(5-(2-methoxyethoxy)pyrazin-2-ylthio)-2,6-dimethylphenyl)thiazol-2-yl)isonicotinamide] | this effect is not seen | degradation of Nek2 | 0.65 | Yes | 0.82 | Yes | 1.41 | No | 1.22 | 1.55 | 1.90 | – | – | –
COc1ccc(Oc2cc(C)c(-c3csc(NC(=O)c4ccncc4)n3)c(C)c2)cc1 [compound 101001, N-(4-(4-(4-methoxyphenoxy)-2,6-dimethylphenyl)thiazol-2-yl)isonicotinamide] | – | – | – | – | – | – | – | – | – | – | – | 34.9 nM | did not show a similar response | activation of apoptotic caspases
